Data on five compounds can be found in US20190185479A1, “BICYCLIC NITROGENATED HETEROCYCLIC COMPOUND” (MITSUBISHI TANABE PHARMA CORPORATION, priority 2016, published 2019).

Some results are limits rather than exact numbers.

Common to all, as to format: biochemical
The target in one assay is T1, Human PDE7B (hPDE7B) (Homo sapiens, UniProt Q9NP56).
T1 construct: made in house; host or cells: COS-7 cells
Put plainly: Measurement of PDE7 inhibitory activity (Experimental Example 1; residual cAMP, LANCE Ultra cAMP TR-FRET). The conditions noted are these: cAMP 3 nmol/L, room temperature 60 minutes. Summed up:
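hPDE7B from transfected COS-7 cells reacted with 3 nmol/L cAMP (final) and compound (2% DMSO) in 50 mmol/L Tris-HCl pH 7.5, 1 mmol/L MgCl2, 0.1% BSA, 0.5 mmol/L DTT, 60 min at room temperature. Reaction stopped with IBMX; residual cAMP measured by TR-FRET. Inhibition scaled between no-compound and no-enzyme controls.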

The next assay concerns the target T2, hPDE1A (Homo sapiens, UniProt P54750).
T2 construct: purchased SB Drug Discovery
The assay can be described thus: PDE7 selectivity test (Ki value), Experimental Example 2: hPDE1A. The conditions noted are these: Ki from IC50 by Cheng-Prusoff, read-out: PDE inhibition constant Ki, PDE1. As to the method: (§1) hPDE1A, hPDE2A, hPDE3A, hPDE4D, hPDE5A, and hPDE8B were purchased from SB Drug Discovery. hPDE7B was isolated by the same method as [Method for preparing samples 1], and hPDE9A, hPDE10A, and hPDE11A were isolated by the same method as hPDE7B, i.e., isolated from COS-7 cells transfected with plasmids encoding each PDE. PDE6 was purified and isolated from bovine retina (bovine PDE6).
(§2) Prior to the calculation of Ki value, Km value of each PDE against cAMP or cGMP was calculated. Each PDE diluted with an assay buffer so that it would have an appropriate enzyme activity, and six or more concentrations of cAMP or cGMP were reacted at room temperature for 60 minutes. Regarding PDE using cAMP as a substrate, PDELight (trademark) HTS cAMP phosphodiesterase Kit (Lonza) was used to measure a degradation product, 5′-AMP. Also, regarding PDE using cGMP as a substrate, […] of perchloric acid was added to the mixture to stop the reaction, and the resulting mixture was subjected to LC-MS/MS to measure the residual cGMP concentration. The amount of degraded substrate in each substrate concentration was calculated, the concentration of the added substrate was plotted on the horizontal axis, the amount of degraded substrate was plotted on the vertical axis, and Km value was calculated by non-linear regression on the basis of Michaelis-Menten equation. Km value (substrate) of each PDE was hPDE1A: 4.3 (cGMP), hPDE2A: 36 (cAMP), hPDE3A: 0.11 (cAMP), hPDE4D: 0.90 (cAMP), hPDE5A: 3.9 (cGMP), bovine PDE6:9.8 (cGMP), hPDE7B: 0.015 (cAMP), hPDE8B: 0.63 (cAMP), hPDE9A: 0.0037 (cGMP), hPDE10A: 0.051 (cAMP), and hPDE11A: 1.4 (cAMP) μmol/L, respectively.
(§3) Next, PDE inhibition assay of a compound was carried out using each PDE. The PDE inhibition assay was basically carried out by the same enzyme reaction method as [Assay procedure 1], and the degraded amount of cAMP or cGMP was measured by the same method as [Assay procedure 2]. In the assay, a concentration approximated to Km value of each PDE against cAMP or cGMP was used as a substrate concentration. Meanwhile, regarding hPDE5A, hPDE8B, and hPDE9A, IMAP (trademark) FP Phosphodiesterase Evaluation Assay Kit (Molecular Devices) was used to measure the degradation of FAM-cAMP or FAM-cGMP by fluorescence depolarization technique.
(§4) Each compound was evaluated at six or more concentrations with common ratio 10. Each inhibition rate was calculated according to <Method for data calculation 1>, and then each IC50 value was calculated by sigmoid regression. The resulting IC50 value was used in the following Cheng-Prusoff equation to calculate each Ki value. Ki=IC50/(1+[S]/Km), wherein [S] represents a substrate concentration used

In another assay the target is T3, hPDE3A (Homo sapiens, UniProt Q14432).
T3 construct: purchased SB Drug Discovery
The assay can be described thus: PDE7 selectivity test (Ki value), Experimental Example 2: hPDE3A. The settings on record: Ki from IC50 by Cheng-Prusoff, read-out: PDE inhibition constant Ki, PDE3. As to the method:
as §1, §2, §3, §4

The target in a further assay is T4, hPDE4D (Homo sapiens, UniProt Q08499).
T4 construct: purchased SB Drug Discovery
Put plainly: PDE7 selectivity test (Ki value), Experimental Example 2: hPDE4D. The settings on record: Ki from IC50 by Cheng-Prusoff, read-out: PDE inhibition constant Ki, PDE4. As to the method:
as §1, §2, §3, §4

The next assay concerns the target T5, hPDE7B (Homo sapiens, UniProt Q9NP56).
T5 construct: made in house; host or cells: COS-7 cells
The assay can be described thus: PDE7 selectivity test (Ki value), Experimental Example 2: hPDE7B. The settings on record: Ki from IC50 by Cheng-Prusoff, read-out: PDE inhibition constant Ki, PDE7. As to the method: as §1, §2, §3, §4

In the next assay the target is hPDE10A (Homo sapiens, UniProt Q9Y233). Put plainly: PDE7 selectivity test (Ki value), Experimental Example 2: hPDE10A. The conditions noted are these: Ki from IC50 by Cheng-Prusoff, read-out: PDE inhibition constant Ki, PDE10. As to the method:
as §1, §2, §3, §4

T2 sequence (P54750 whole entry): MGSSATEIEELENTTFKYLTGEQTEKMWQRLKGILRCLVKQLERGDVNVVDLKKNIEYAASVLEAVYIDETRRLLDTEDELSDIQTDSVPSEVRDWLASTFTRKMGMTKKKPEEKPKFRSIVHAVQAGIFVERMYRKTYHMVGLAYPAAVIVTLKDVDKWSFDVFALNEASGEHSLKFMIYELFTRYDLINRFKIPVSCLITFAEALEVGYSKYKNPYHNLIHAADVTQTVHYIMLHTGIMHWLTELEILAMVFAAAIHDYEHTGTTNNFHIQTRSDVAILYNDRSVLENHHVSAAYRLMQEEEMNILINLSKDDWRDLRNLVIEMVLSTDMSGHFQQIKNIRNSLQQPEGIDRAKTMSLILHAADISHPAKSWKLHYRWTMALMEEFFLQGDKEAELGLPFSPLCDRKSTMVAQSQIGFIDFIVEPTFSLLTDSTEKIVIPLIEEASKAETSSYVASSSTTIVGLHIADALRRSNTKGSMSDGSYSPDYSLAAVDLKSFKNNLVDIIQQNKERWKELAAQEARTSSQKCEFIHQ
T5 sequence (Q9NP56 whole entry): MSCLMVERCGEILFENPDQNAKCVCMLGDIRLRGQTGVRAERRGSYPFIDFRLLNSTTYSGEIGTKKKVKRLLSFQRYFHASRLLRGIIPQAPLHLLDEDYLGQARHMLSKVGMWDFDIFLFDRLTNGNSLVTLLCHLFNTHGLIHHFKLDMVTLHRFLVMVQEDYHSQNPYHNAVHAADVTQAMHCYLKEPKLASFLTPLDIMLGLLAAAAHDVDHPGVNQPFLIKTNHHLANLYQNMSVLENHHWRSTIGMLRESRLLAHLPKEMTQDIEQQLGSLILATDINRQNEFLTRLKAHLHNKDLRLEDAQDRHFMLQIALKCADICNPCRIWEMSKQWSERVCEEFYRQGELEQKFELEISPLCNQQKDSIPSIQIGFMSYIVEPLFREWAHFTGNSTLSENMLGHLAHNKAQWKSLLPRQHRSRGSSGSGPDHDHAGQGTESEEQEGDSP
T1 sequence (Q9NP56 whole entry): as above
T4 sequence (Q08499 whole entry): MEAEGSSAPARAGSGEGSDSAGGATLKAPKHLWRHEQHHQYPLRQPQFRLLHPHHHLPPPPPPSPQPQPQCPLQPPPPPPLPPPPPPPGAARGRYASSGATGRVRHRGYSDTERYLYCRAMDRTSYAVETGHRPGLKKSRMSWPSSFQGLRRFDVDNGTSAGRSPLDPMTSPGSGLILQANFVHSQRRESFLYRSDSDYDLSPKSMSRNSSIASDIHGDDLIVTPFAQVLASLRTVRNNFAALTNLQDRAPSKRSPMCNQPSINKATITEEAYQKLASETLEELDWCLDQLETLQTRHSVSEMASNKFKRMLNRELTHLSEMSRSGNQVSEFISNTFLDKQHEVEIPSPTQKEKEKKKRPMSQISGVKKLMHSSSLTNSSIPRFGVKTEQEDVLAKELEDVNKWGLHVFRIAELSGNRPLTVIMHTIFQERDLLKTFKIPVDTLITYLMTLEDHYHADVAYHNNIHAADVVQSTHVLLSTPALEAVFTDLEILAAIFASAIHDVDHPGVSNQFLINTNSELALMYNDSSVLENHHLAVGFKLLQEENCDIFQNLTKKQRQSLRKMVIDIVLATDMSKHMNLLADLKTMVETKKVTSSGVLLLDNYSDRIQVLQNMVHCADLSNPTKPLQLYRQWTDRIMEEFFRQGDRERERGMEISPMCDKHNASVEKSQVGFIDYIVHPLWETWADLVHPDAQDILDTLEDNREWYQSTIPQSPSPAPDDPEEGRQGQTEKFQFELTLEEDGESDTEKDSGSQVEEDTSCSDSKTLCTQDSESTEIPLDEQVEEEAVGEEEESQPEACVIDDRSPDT
hPDE10A, sequence (Q9Y233 290-1055 limits assumed): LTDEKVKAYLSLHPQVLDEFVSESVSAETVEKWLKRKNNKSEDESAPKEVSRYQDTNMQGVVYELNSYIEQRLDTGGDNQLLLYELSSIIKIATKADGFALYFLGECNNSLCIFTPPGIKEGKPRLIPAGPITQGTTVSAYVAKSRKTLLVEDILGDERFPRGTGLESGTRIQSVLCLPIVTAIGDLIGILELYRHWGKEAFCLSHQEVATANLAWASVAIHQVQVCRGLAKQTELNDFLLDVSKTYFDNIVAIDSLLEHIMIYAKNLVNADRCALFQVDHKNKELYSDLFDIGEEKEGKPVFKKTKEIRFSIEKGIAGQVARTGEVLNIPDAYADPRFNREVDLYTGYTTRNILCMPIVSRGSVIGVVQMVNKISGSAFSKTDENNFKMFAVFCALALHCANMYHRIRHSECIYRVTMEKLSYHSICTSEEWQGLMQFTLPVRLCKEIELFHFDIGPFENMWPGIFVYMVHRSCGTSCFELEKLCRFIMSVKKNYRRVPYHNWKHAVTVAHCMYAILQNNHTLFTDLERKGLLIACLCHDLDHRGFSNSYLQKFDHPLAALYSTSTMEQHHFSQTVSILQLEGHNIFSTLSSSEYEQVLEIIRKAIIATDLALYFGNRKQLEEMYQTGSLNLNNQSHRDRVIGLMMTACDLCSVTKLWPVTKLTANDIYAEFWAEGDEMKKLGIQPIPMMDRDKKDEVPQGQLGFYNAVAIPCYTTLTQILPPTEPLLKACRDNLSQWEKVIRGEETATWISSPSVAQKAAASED
T3 sequence (Q14432 whole entry): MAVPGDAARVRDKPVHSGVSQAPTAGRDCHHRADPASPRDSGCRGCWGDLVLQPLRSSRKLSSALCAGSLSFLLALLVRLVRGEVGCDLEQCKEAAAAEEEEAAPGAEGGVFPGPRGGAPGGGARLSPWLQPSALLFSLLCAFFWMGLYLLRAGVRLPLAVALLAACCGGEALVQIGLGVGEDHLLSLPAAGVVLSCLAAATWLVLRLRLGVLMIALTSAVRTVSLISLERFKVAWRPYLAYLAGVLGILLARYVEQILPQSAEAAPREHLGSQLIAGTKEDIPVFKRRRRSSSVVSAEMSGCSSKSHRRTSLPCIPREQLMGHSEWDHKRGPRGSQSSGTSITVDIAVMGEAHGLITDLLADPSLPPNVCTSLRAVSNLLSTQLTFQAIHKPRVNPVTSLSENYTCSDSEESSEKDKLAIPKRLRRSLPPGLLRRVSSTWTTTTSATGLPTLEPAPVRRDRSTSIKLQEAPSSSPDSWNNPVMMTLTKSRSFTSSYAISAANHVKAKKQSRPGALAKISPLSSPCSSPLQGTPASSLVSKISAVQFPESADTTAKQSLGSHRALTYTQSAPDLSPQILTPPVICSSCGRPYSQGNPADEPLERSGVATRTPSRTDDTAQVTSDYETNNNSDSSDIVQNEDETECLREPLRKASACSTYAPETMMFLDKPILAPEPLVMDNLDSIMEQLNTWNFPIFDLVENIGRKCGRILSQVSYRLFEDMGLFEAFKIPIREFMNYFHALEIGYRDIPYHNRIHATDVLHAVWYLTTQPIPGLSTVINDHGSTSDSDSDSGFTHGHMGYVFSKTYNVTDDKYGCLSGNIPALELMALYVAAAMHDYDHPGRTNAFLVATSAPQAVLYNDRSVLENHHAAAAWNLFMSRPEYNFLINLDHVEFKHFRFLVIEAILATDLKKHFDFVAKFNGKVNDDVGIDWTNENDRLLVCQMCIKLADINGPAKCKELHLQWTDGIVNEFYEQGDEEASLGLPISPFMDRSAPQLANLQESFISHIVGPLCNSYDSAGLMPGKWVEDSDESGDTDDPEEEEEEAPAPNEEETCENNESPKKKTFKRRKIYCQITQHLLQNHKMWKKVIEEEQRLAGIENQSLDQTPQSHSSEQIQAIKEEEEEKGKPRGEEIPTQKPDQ

Compound `C[C@@H]1CCC[C@H](c2nnc3c(N)nccn23)C1` [Example 204, 3-[(1S,3R)-3-methylcyclohexyl][1,2,4]triazolo[4,3-a]pyrazin-8-amine] yielded an IC50 against Human PDE7B (hPDE7B) below 0.01 µM. Also, the Ki stood at 8.9 µM at hPDE1A; 43 µM at hPDE3A; 1.2 µM at hPDE4D; 0.003 µM at hPDE7B; 2.6 µM on hPDE10A.
Consider `CC1CCCCC1n1nnc2c(N)ncnc21` (single isomer, unassigned) [Example 191, 3-(cis-2-methylcyclohexyl)-3H-[1,2,3]triazolo[4,5-d]pyrimidin-7-amine], for which the IC50 against Human PDE7B (hPDE7B) is below 0.01 µM. Besides, the Ki was 39 µM on hPDE1A; above 52 µM on hPDE3A; 4.2 µM at hPDE4D; 0.012 µM on hPDE7B; 2.4 µM at hPDE10A.
Turning to `Nc1nccn2c(C3CCCCC3)nnc12` [Example 141, 3-cyclohexyl[1,2,4]triazolo[4,3-a]pyrazin-8-amine], the IC50 at Human PDE7B (hPDE7B) came to 0.01 µM. Moreover, the Ki on hPDE1A was above 5.2 µM; at hPDE3A, above 5.2 µM; at hPDE4D, above 4.8 µM; on hPDE7B, 0.031 µM; at hPDE10A, above 5.1 µM.
Compound `Nc1ncnc2c1nnn2C1CCCCC1` [Example 3, 3-cyclohexyl-3H-[1,2,3]triazolo[4,5-d]pyrimidin-7-amine] registered an IC50 at Human PDE7B (hPDE7B) of 0.05 µM. The Ki at hPDE1A is above 52 µM; on hPDE3A, above 52 µM; at hPDE4D, 4.4 µM; on hPDE7B it was 0.031 µM; at hPDE10A it was 12 µM.
`Cc1nc(N)c2nnn(C3CCCCC3)c2n1` [Example 4] displayed an IC50 against Human PDE7B (hPDE7B) of 0.05 µM. Moreover, the Ki at hPDE1A is above 5.2 µM; on hPDE3A it was above 5.2 µM; at hPDE4D, 0.22 µM; at hPDE7B, 0.027 µM; at hPDE10A it was 1.1 µM.
